Measured values taken from patent US8722884B2, “Pyrimidine derivatives for the treatment of abnormal cell growth” (Verastem, Inc., priority 2005, dated 2014).
In brackets after ≈: the same amount, converted by molar mass. Where two headings read alike, the source gives them in different places.

Assays:
Format in all cases: physicochemical
[1] = Solid-state stability at 70 C/75% RH
Experimental: The monobesylate salt of Formula I (m. wt. 665.67), Form A, was a white crystalline solid with irregularly-shaped particle morphology ranging from approximately […] in diameter. This anhydrous form melted (DSC, Tonset) at 254° C. with decomposition.

[2] = VTI moisture adsorption/desorption (hygroscopicity); conditions: for Hygroscopicity assessment in words: VTI, up to 90% RH; for Hygroscopic moisture gain / weight gain at 90% RH (VTI): flow-through VTI, 25 C; for Hygroscopic moisture gain / weight gain at 90% RH (VTI) / Hygroscopicity (by weight) at 90% relative humidity at ambient temperature: 90% RH
Excerpt: The salts and solvates of the present invention can be further characterized by VTI water vapor adsorption to measure hygroscopicity. […] Other methods of analysis are described in more detail in the Examples.
This monobesylate salt of Formula I appeared as fine crystalline particles of moderate to high birefringence with irregularly-shaped morphology. The size of the particles ranged from approximately […] to 50 mm in diameter, with some aggregates up to about 200 mm in diameter. The material was tested using DSC at a heating rate of five degrees/minute, FIG. 1(b). A sharp melting endotherm with onset temperature of 254° C. was observed. Minor front tailing for the endotherm was also noted. The material was tested by TGA at a heating rate of five degrees/minute, FIG. 1(c). No loss in weight was observed up to the melting onset temperature (˜250)° C. […] These solvents were thus likely entrained by the crystal and were not released until melting. […] The dynamic moisture sorption was evaluated using a flow-through VTI apparatus at 25° C. The sample was initially dried at ˜2% RH for maximum of two hours, followed by a moisture adsorption ramp from 10% RH to 90%, then a desorption ramp back down to 10% RH. Initial drying removed 0.08% by weight, followed by a maximum moisture gain of 0.09% at 90% RH. Thus, this complex was non-hygroscopic.
The sample was tested in flow-through VTI with relative humidity ramp from 0 to 90%, then a desorption ramp back down to 10%1 RH at 25 C. […] The monomesylate was analyzed for elemental composition of carbon, hydrogen, nitrogen, fluorine and sulfur. The results from analysis met the stoichiometry of a mono-mesylate salt containing 1% THF.
The hemihydrate tosylate salt of Formula I consisted of fine birefringent aggregated needles and lathes. This sample was crystalline by PXRD. The thermal profile of this sample was obtained by heating from 30-300 C at 5 C/min. […] The volatile content of this sample was obtained by heating from 30-225 C at 5 C/min. The total volatile content was 1.4%, and consisted of water and ethanol by IR. The sample was tested in flow-through VTI with relative humidity ramp from 0 to 90% at 25 C.

pKa in solution = conditions: weak base
Excerpt: (§1) Solubility increased in acidic media, with a solubility of 1 mgA/ml observed in pH 2 buffer. […] Solubility determined in several common organic solvents, such as ethanol and acetone, was about 200 mgA/ml. The following table summarizes the physical and chemical properties of the monobesylate salt of Formula I: […]

[3] = Solubility in aqueous media and organic solvents
Excerpt: as §1

[4] = listed as monobesylate salt of Formula I

CN(c1ncccc1CNc1nc(Nc2ccc3c(c2)CC(=O)N3)ncc1C(F)(F)F)S(C)(=O)=O [Example 1, N-Methyl-N-(3-{[2-(2-oxo-2,3-dihydro-1H-indol-5-ylamino)-5-trifluoromethyl-pyrimidin-4-ylamino]-methyl}-pyridin-2-yl)-methanesulfonamide]
Solid-state stability, 3 weeks at 70 C./75% RH (purity by HPLC area % relative to room temperature control) ([1]; 3 weeks, 70 C/75% RH): >99.9% (purity by HPLC | Solid-state stability in words ([1]; three weeks exposure to 70 C/75% RH): chemically and physically stable in the solid-state | Hygroscopicity assessment in words [2, 4]: non-hygroscopic | Hygroscopic moisture gain / weight gain at 90% RH (VTI) [2, 4]: 0.09% | pKa (pKa in solution): 4.58 | Acetone solubility ([3]; acetone): 206 ugA/ml | Aqueous buffer pH 1.4 solubility ([3]; aqueous buffer pH 1.4): 1162 ugA/ml | Aqueous buffer pH 7 solubility ([3]; aqueous buffer pH 7): 4 ugA/ml | solubility ([3]; aqueous buffer, heading: Solubility in unbuffered water, unbuffered water, pH 2.65): 369 µg/mL (≈ 727 µM) | solubility ([3]; aqueous buffer, pH 2 buffer, read-out: Solubility in pH 2 buffer): 1000 µg/mL (≈ 1970 µM) | solubility ([3]; aqueous media, water, aqueous, above pH 5, read-out: Aqueous solubility above pH 5): ~5000 µg/mL (≈ 9850 µM) | Ethanol solubility ([3]; ethanol): 260 ugA/ml | Solubility in common organic solvents, such as ethanol and acetone ([3]; organic solvents): about 200 mgA/ml | Unbuffered water solubility (pH 2.65) ([3]; unbuffered water, pH 2.65 (table)): 369 ugA/ml

CN(c1ncccc1CNc1nc(Nc2ccc3c(c2)CC(=O)N3)ncc1C(F)(F)F)S(C)(=O)=O [Example 2, N-Methyl-N-(3-{[2-(2-oxo-2,3-dihydro-1H-indol-5-ylamino)-5-trifluoromethyl-pyrimidin-4-ylamino]-methyl}-pyridin-2-yl)-methanesulfonamide]
Hygroscopicity (by weight) at 90% relative humidity at ambient temperature [2]: 0.16% | Hygroscopic moisture gain / weight gain at 90% RH (VTI) ([2]; listed as besylate salt of Formula I): 0.16%

CN(c1ncccc1CNc1nc(Nc2ccc3c(c2)CC(=O)N3)ncc1C(F)(F)F)S(C)(=O)=O [Example 3, N-Methyl-N-(3-{[2-(2-oxo-2,3-dihydro-1H-indol-5-ylamino)-5-trifluoromethyl-pyrimidin-4-ylamino]-methyl}-pyridin-2-yl)-methanesulfonamide]
Hygroscopicity (by weight) at 90% relative humidity at ambient temperature [2]: 1.4% | Hygroscopicity assessment in words ([2]; listed as monomesylate): kinetically non-hygroscopic | Hygroscopic moisture gain / weight gain at 90% RH (VTI) ([2]; listed as monomesylate): 1.4%

CN(c1ncccc1CNc1nc(Nc2ccc3c(c2)CC(=O)N3)ncc1C(F)(F)F)S(C)(=O)=O [Example 4, N-Methyl-N-(3-{[2-(2-oxo-2,3-dihydro-1H-indol-5-ylamino)-5-trifluoromethyl-pyrimidin-4-ylamino]-methyl}-pyridin-2-yl)-methanesulfonamide]
Hygroscopicity (by weight) at 90% relative humidity at ambient temperature [2]: 0.6% | Hygroscopic moisture gain / weight gain at 90% RH (VTI) ([2]; listed as tosylate salt of Formula I): 0.6%

CN(c1ncccc1CNc1nc(Nc2ccc3c(c2)CC(=O)N3)ncc1C(F)(F)F)S(C)(=O)=O [Example 5, N-Methyl-N-(3-{[2-(2-oxo-2,3-dihydro-1H-indol-5-ylamino)-5-trifluoromethyl-pyrimidin-4-ylamino]-methyl}-pyridin-2-yl)-methanesulfonamide]
Hygroscopicity (by weight) at 90% relative humidity at ambient temperature [2]: 2.7%

CN(c1ncccc1CNc1nc(Nc2ccc3c(c2)CC(=O)N3)ncc1C(F)(F)F)S(C)(=O)=O [Example 6, N-Methyl-N-(3-{[2-(2-oxo-2,3-dihydro-1H-indol-5-ylamino)-5-trifluoromethyl-pyrimidin-4-ylamino]-methyl}-pyridin-2-yl)-methanesulfonamide]
Hygroscopicity (by weight) at 90% relative humidity at ambient temperature [2]: 1.4%
